Tests used:
Type in all cases: cell-based
Bach1 mRNA [1] = experiment: Dose-response curve of Bach1 mRNA knock-down in human A549 cells; settings: three experiments, mean ± standard deviation; for IC50: Table 4, Bach1 mRNA knock-down; for Maximum % KD in DRC: Table 4, Bach1 mRNA, 12 concentrations 0.083 fM to 30 nM
Method: All calculations of IC50s were performed using SigmaPlot 10.0 software. The data were analyzed using the sigmoidal dose-response (variable slope) equation for simple ligand binding. In all of the calculations of the % knock-down, the calculation was made relative to the normalized level of expression of the gene of interest in the samples treated with the non-targeting control (Ctrl siNA) unless otherwise indicated. Summary data, as to potency and efficacy for Bach1 mRNA knock-down in human cells for certain siNA molecules, is presented in Table 4. Cells for the experiments were treated with 12 concentrations of siNA ranging from 0.083 fM to 30 nM. All of the data is presented as % knockdown of Bach1 normalized against the expression of GAPDH mRNA expression level. Then the data was determined as a % knockdown relative to the non-targeting control siNA.

HMOX1 mRNA = experiment: HMOX1 (HO-1) mRNA upregulation in human bronchial epithelial cells (NHBE); settings: 48 hours post transfection, mean of 3 donors
Method: Human Bronchial Epithelial cells (NHBE cells) obtained from Lonza (Cat. No. CC-2540) were grown at 37deg in the presence of 5% CO2 and cultured in BEBM basal medium (Lonza, Cat. No. CC-3171) on Biocoat Collagen1 coated flasks (Becton Dickinson). NHBE cells were plated in collagen 1 coated plates and cultured in appropriate culture media. The cells were cultured for 24 hours after plating at 37 degrees in the presence of 5% CO2. siNAs were diluted in OptiMEM 1 to 1 uM and the transfection agent to 25 ug/ml. For formulation of the siNAs equal volumes of the diluted siNA and delivery lipid were combined and incubated for 20 minutes at room temperature. Cells were meanwhile trypsinised and resuspended in antibiotic free BEBM media at 150,000 cells/ml. 20 ul of the formulated siNA and 80 ul of BEBM media was added per well of a 96 well plate (6 replicates/data point/siNA concentration) so as to give a nine point dose range of the siNAs (100 nM, 30 nM, 10 nM, 3 nM, 1 nM, 0.3 nM, 0.1 nM, 0.03 nM, 0.01 nM). The time of incubation with the transfection-siNA complexes were 48 hours with one change of media at 24 hours. Total RNA was isolated from the cells in the 96-well plate format using the Automated SV96 Total RNA Isolation System (Promega) according to the manufacturer's instructions. The Biomek 2000 Laboratory Automation Workstation (Beckman Coulter) was used to apply the transfected cell lysates to a silica membrane. RNase-Free DNase I was then applied directly to the silica membrane to digest contaminating genomic DNA. The bound total RNA was further purified from contaminating salts, proteins and cellular impurities by simple washing steps. Finally, total RNA was eluted from the membrane by the addition of Nuclease-Free Water. A series of probes and primers were used for the detection of mRNA transcripts of Bach1, OAS1, IL8 and GAPDH (as control/normalisation) in the human cell lines. The assays were performed on an ABI 7900HT instrument according to the manufacturer's instructions. Primer Probe sets used: With Taqman data critical threshold values (Ct) were converted to copy numbers corresponding to the particular gene analysed in each well of the 384 well plate. Six identical wells were prepared in each plate for a given treatment. […] Relative abundance (aka relative expression) of a gene was determined by dividing the mean copy number of that gene with its GAPDH counterpart in that particular sample. EC50 values were calculated from the data using sigma plot. All calculations of the efficacy and potency of the siNAs were done relative to the non-targeting control siNA. Percentage knockdown was compared between the four lead siNA's. The data was analysed using an ANOVA test and then the p-values were corrected for multiple comparisons using the False Discovery Rate correction (FDR).

Bach1 mRNA [2] = experiment: Dose-response curve of Bach1 mRNA knock-down in human A549 cells; settings: for Maximum % KD in DRC: Table 6, Bach1 mRNA, mean ± SD; for IC50: Table 6, mean ± SD

Substance | IC50 (Bach1 mRNA [1]) | Maximum % KD in DRC (Bach1 mRNA [1]) | EC50 (HMOX1 mRNA) | Maximum HMOX1 upregulation (HMOX1 mRNA) | Maximum % KD in DRC (Bach1 mRNA [2]) | IC50 (Bach1 mRNA [2])
29957-DC (sense GCAGUUACUUCCACUCAAGTT; antisense CUUGAGUGGAAGUAACUGCUU; inverted abasic end caps, TT overhangs, modified nucleotides, further chemistry not given here) | 39 ± 13 pM | 87 ± 0.9% | 29800 pM | 290% | 87 ± 0.9% | 39 ± 13 pM
29964-DC (sense GAUUUGCAGGUGAUGUUAATT; antisense UUAACAUCACCUGCAAAUCUU; inverted abasic end caps, TT overhangs, modified nucleotides, further chemistry not given here) | 27 ± 15 pM | 87 ± 2.8% | 30300 pM | 4800% | 87 ± 2.8% | 27 ± 15 pM
29984-DC (sense GUUAAAGGAUUUGAACCUUTT; antisense AAGGUUCAAAUCCUUUAACUU; inverted abasic end caps, TT overhangs, modified nucleotides, further chemistry not given here) |  |  |  | 153% |  | 
29961-DC (sense CUACACUGCUAAACUGAUUTT; antisense AAUCAGUUUAGCAGUGUAGUU; inverted abasic end caps, TT overhangs, modified nucleotides, further chemistry not given here) | 10 ± 4 pM | 89 ± 2.2% | 50400 pM | 10266% | 89 ± 2.2% | 10 ± 4 pM
29988-DC (sense AUUUGAACCUUUAAUUCAGTT; antisense CUGAAUUAAAGGUUCAAAUUU; inverted abasic end caps, TT overhangs, modified nucleotides, further chemistry not given here) | 63 ± 19 pM | 84 ± 0.9% | 34500 pM | 550% | 84 ± 0.9% | 63 ± 19 pM
29956-DC (sense GUCUGAGUGUCCGUGGUUATT; antisense UAACCACGGACACUCAGACUU; inverted abasic caps (B), 2'-modified nucleotides, further chemistry not given here) | 28 ± 18 pM | 80 ± 7.7% | 33100 pM | 2416% | 80 ± 7.7% | 28 ± 18 pM
29947-DC (sense GGAAUCCUGCUUUCAGUUUTT; antisense AAACUGAAAGCAGGAUUCCUU; inverted abasic caps (B), 2'-modified nucleotides, further chemistry not given here) | 27 ± 5 pM | 86 ± 0.5% |  | 1566% | 86 ± 0.5% | 27 ± 5 pM
